# Results: patent US10766869B2, “Triazoles for the treatment of demyelinating dieases” (Vertex Pharmaceuticals Incorporated, priority 2015, dated 2020)
# Where two headings read alike, the source gives them in different places.
# Tested on: primary rat mixed cortical cells
# Experiment: In vitro myelination assay (MBP positive myelin strands, fold myelin pixels above background)
# Format: cell-based
# Conditions: for fold induction at 1 µM / fold induction at 10 µM: Rattus norvegicus
# Source text: In Vitro Myelination Assay
# Compounds were screened for their ability to induce myelination using a primary rat mixed cortical cell culture assay, which contains neurons, oligodendrocyte precursor cells, oligodendrocytes, astrocytes and microglia. The assay quantifies myelination by measuring myelin basic protein (MBP) immunofluorescent positive myelin strands from images taken using a Cellomics Array Scan (model Arrayscan VTI HCS Reader) or a Molecular Devices Image Xpress (model IXM XL) high content imager. The myelin strands were quantitated using a custom created myelin detection software program. Test compounds were dissolved in DMSO to make a 10 mM initial stock solution. Dilutions were made in myelination medium to obtain the final solutions for the assay and were tested in primary rat mixed cortical cells at selected doses.
# Primary rat mixed cortical cells were prepared from harvested cerebral cortices from postnatal day 1 (P1) rats (P1 Rat CD® IGS pups) were purchased from Charles River) in Complete Dissociation Medium, wherein the meninges were removed and the cortical tissue chopped with a razor blade into ˜1 mm^3 pieces. Tissue from 1-3 pups was collected and placed into 15 ml conical tubes in a total volume of 5 ml of Complete Dissociation Medium. Activated papain (3 ml) was added to each 15 ml conical tube and tissue was incubated at 37° C. for 30 minutes. After the 30 minute incubation, DNase (Sigma D4527; 75 μl of a 1 mg/ml stock) was added to each tube, followed by mechanical trituration using a 2 ml serological pipette and autopipettor to gently dissociate the tissue. Following trituration, larger tissue pieces were allowed to settle by gravity, and the supernatant containing dissociated cells was transferred to a 50 ml conical tube with 4 ml of trypsin inhibitor. Cells were pelleted by centrifugation, resuspended in myelination medium and filtered through a 40 μm filter. Cells were then seeded in 96-well plates (BD Biosciences, Black, PDL-coated, Cat. No. 356640) at 87,500-95,000 cells/well in a final volume of 200 μl of Myelination Medium in the presence or absence of compound and cultured for 14 days in a humidified 37° C. incubator with 5% CO2. Half the medium was removed and replaced with fresh medium containing 1× compound on days 6 and 10. Using a Biotek automatic plate washer (model Biomek® FXP Laboratory Automation Workstation), cells were fixed with 4% paraformaldehyde on day 14, washed with PBS and blocked in 5% normal goat serum (Vector Laboratories, S-1000) in 0.1% PBS-TritonX-100 (PBST) for 1 hour. Cells were stained with 1:500 anti-MBP (Covance, cat # SMI99) primary antibody in 1% normal goat serum in 0.1% PBST for 2 hours at room temperature followed by 2 washes with PBST. A final incubation in secondary antibody (1:1000, Invitrogen, Alexa-488 anti-mouse IgG2b) and 1:10,000 Hoechst dye in 1% normal goat serum in 0.1% PBST was performed for 2 hours at room temperature. Plates were washed with PBS and then scanned on a Cellomics Array Scan using a 10× objective (25 images per well) or the Image Xpress using a 10× objective (9 image per well). Images were analyzed using Vertex myelin detection software (described below) to quantify total MBP myelin pixels per well. Fold myelin pixels above background at two concentrations (1.0 μM and 10.0 μM) relative to baseline of no added compound are reported below in Table 4. Standard deviation for each compound concentration was calculated using all replicates and using a standard deviation formula commonly used in the art.
# One of skill in the art would recognize that for this type of primary neuronal mixed cell assay variability between different assay runs is to be expected even though the protocol is the same for each assay run. For instance, variability may be due to small differences in cell viability, cell density, age of the animals, etc.
# Vertex Myelin Detection Software: […]
# [1] = 1.0 μM compound, read-out: Fold myelin pixels above background relative to baseline of no added compound
# [2] = 10.0 μM compound, read-out: Fold myelin pixels above background relative to baseline of no added compound
# [3] = 1.0 μM compound, relative to baseline of no added compound, read-out: Fold myelin pixels above background
# [4] = 10.0 μM compound, relative to baseline of no added compound, read-out: Fold myelin pixels above background
# [5] = 1.0 μM compound, relative to baseline of no added compound, read-out: Fold myelin pixels above background, 1.0 μM
# [6] = 10.0 μM compound, relative to baseline of no added compound, read-out: Fold myelin pixels above background, 10.0 μM
Compound,fold induction at 1 µM [5],fold induction at 10 µM [6],also measured
"Cc1cc(Nc2ncn(-c3cccc(F)c3)n2)c(F)c(OC2CCOC2)c1 (single isomer, unassigned) [Compound 886, N-(2-fluoro-5-methyl-3-tetrahydrofuran-3-yloxy-phenyl)-1-(3-fluorophenyl)-1,2,4-triazol-3-amine]",–,–,Fold myelin pixels above background relative to baseline of no added compound (1.0 μM compound): ++ (>10 to 100x); Fold myelin pixels above background relative to baseline of no added compound (10.0 μM compound): + (>1 to 10x)
"Cc1cc(Nc2ncn(-c3cc(F)cc(F)c3)n2)cc(N2CCC[C@H]2CN2CCOCC2)c1 (single isomer, unassigned) [Compound 919]",–,–,fold induction at 1 µM [1]: 10 to 100; fold induction at 10 µM [2]: ≤ 1
"Cc1cc(Nc2ncn(-c3ccccc3)n2)c(F)c(OC2CCOC2)c1 (single isomer, unassigned) [Compound 1002, N-(2-fluoro-5-methyl-3-tetrahydrofuran-3-yloxy-phenyl)-1-phenyl-1,2,4-triazol-3-amine]",–,–,Fold myelin pixels above background relative to baseline of no added compound (1.0 μM compound): +++ (>100 to 1000x); fold induction at 10 µM [2]: 10 to 100
"Cc1cc(Nc2ncn(-c3ccc(F)c(F)c3)n2)c(F)c(OC2CCOC2)c1 (single isomer, unassigned) [Compound 1009, 1-(3,4-difluorophenyl)-N-(2-fluoro-5-methyl-3-tetrahydrofuran-3-yloxy-phenyl)-1,2,4-triazol-3-amine]",–,–,fold induction at 1 µM [1]: 10 to 100; fold induction at 10 µM [2]: 1 to 10
"Cc1cc(Nc2ncn(-c3cc(F)cc(F)c3)n2)c(F)c(OC2CCOC2)c1 (single isomer, unassigned) [Compound 1028, 1-(3,5-difluorophenyl)-N-(2-fluoro-5-methyl-3-tetrahydrofuran-3-yloxy-phenyl)-1,2,4-triazol-3-amine]",–,–,fold induction at 1 µM [1]: 10 to 100; fold induction at 10 µM [2]: 1 to 10
"Cc1cc(Nc2ncn(-c3ccccc3)n2)c(F)c(OC2CCOC2)c1 (single isomer, unassigned) [Compound 1052, N-(2-fluoro-5-methyl-3-tetrahydrofuran-3-yloxy-phenyl)-1-phenyl-1,2,4-triazol-3-amine]",–,–,Fold myelin pixels above background relative to baseline of no added compound (1.0 μM compound): ++ (>10 to 100x); Fold myelin pixels above background relative to baseline of no added compound (10.0 μM compound): ++ (>10 to 100x)
"Cc1cc(Nc2ncn(-c3cccc(F)c3)n2)c(F)c(OC2CCOC2)c1 (single isomer, unassigned) [Compound 1061, N-(2-fluoro-5-methyl-3-tetrahydrofuran-3-yloxy-phenyl)-1-(3-fluorophenyl)-1,2,4-triazol-3-amine]",–,–,Fold myelin pixels above background relative to baseline of no added compound (10.0 μM compound): ++ (>10 to 100x); fold induction at 1 µM [1]: 10 to 100
"Cc1cc(NC[C@@]2(C)CCCO2)cc(Nc2ncn(-c3cc(F)cc(F)c3)n2)c1 (stereo in doubt) [Compound 490, N1-[1-(3,5-difluorophenyl)-1,2,4-triazol-3-yl]-5-methyl-N3-[(2-methyltetrahydrofuran-2-yl)methyl]benzene-1,3-diamine]",–,–,fold induction at 1 µM [3]: 10 to 100; fold induction at 10 µM [4]: 10 to 100
"Cc1cc(Nc2ncn(-c3cc(F)cc(F)c3)n2)cc([C@@]2(C)CNC(=O)O2)c1 (stereo in doubt) [Compound 658, 5-[3-[[1-(3,5-difluorophenyl)-1,2,4-triazol-3-yl]amino]-5-methyl-phenyl]-5-methyl-oxazolidin-2-one]",–,–,fold induction at 1 µM [3]: 10 to 100; fold induction at 10 µM [4]: ≤ 1
"Cc1cc(Nc2ncn(-c3cc(F)cc(F)c3)n2)cc(N2CCN(C3COC3)CC2)n1 [Compound 1, N-[1-(3,5-difluorophenyl)-1,2,4-triazol-3-yl]-2-methyl-6-[4-(oxetan-3-yl)piperazin-1-yl]pyridin-4-amine]",1000 to 10000,100 to 1000,–
"COC1CN(c2cc(C)cc(Nc3ncn(-c4cc(F)cc(F)c4)n3)c2)C1 [Compound 2, 1-(3,5-difluorophenyl)-N-[3-(3-methoxyazetidin-1-yl)-5-methyl-phenyl]-1,2,4-triazol-3-amine]",100 to 1000,100 to 1000,–
"Fc1ccc(-n2cnc(Nc3cc(C4=CCOCC4)nc(C4CC4)c3)n2)cc1F [Compound 3, 2-cyclopropyl-N-[1-(3,4-difluorophenyl)-1,2,4-triazol-3-yl]-6-(3,6-dihydro-2H-pyran-4-yl)pyridin-4-amine]",100 to 1000,1000 to 10000,–
"OC1(C2CN(c3cc(Nc4ncn(-c5cc(F)cc(F)c5)n4)cc(C(F)(F)F)c3)CCN2)CCC1 (stereo not shown) [Compound 4, 1-[4-[3-[[1-(3,5-difluorophenyl)-1,2,4-triazol-3-yl]amino]-5-(trifluoromethyl)phenyl]piperazin-2-yl]cyclobutanol]",1 to 10,≤ 1,–
"Fc1cc(F)cc(-n2cnc(Nc3cc(Cl)cc(N4CCN(C5COC5)CC4)c3)n2)c1 [Compound 5, N-[3-chloro-5-[4-(oxetan-3-yl)piperazin-1-yl]phenyl]-1-(3,5-difluorophenyl)-1,2,4-triazol-3-amine]",1000 to 10000,≤ 1,–
Cc1cc(Nc2ncn(-c3ccccc3)n2)cc(N2CCC(C)(O)C2)c1 (stereo not shown) [Compound 6],100 to 1000,10 to 100,–
"Cc1cc(Nc2ncn(-c3ccccc3)n2)cc(N2CC3(COC3)C2)c1 [Compound 7, N-[3-methyl-5-(6-oxa-2-azaspiro[3.3]heptan-2-yl)phenyl]-1-phenyl-1,2,4-triazol-3-amine]",1000 to 10000,1000 to 10000,–
"Cc1cc(Nc2ncn(-c3cc(F)cc(F)c3)n2)cc(NC2CCOC2)c1 (stereo not shown) [Compound 8, N3-[1-(3,5-difluorophenyl)-1,2,4-triazol-3-yl]-5-methyl-N1-tetrahydrofuran-3-yl-benzene-1,3-diamine]",100 to 1000,1 to 10,–
"c1ccc(-n2cnc(Nc3cc(C4CC4)nc(N4CCC5(CC4)OCCO5)c3)n2)cc1 [Compound 9, 2-cyclopropyl-6-(1,4-dioxa-8-azaspiro[4.5]decan-8-yl)-N-(1-phenyl-1,2,4-triazol-3-yl)pyridin-4-amine]",1000 to 10000,100 to 1000,–
"c1ccc(-n2cnc(Nc3cc(C4CCOCC4)cc(C4CCOCC4)c3)n2)cc1 [Compound 10, N-[3,5-di(tetrahydropyran-4-yl)phenyl]-1-phenyl-1,2,4-triazol-3-amine]",1 to 10,≤ 1,–
"Cc1cc(Nc2ncn(-c3ccccc3)n2)cc(N2CCC3(CC2)COC3)c1 [Compound 11, N-[3-methyl-5-(2-oxa-7-azaspiro[3.5]nonan-7-yl)phenyl]-1-phenyl-1,2,4-triazol-3-amine]",1000 to 10000,1000 to 10000,–
"COC(=O)N1CCC(c2cc(C)cc(Nc3ncn(-c4ccccc4)n3)c2)CC1 [Compound 12, methyl 4-[3-methyl-5-[(1-phenyl-1,2,4-triazol-3-yl)amino]phenyl]piperidine-1-carboxylate]",100 to 1000,1 to 10,–
"CN1CCN(c2cc(Nc3ncn(-c4ccncc4)n3)cc(C(F)(F)F)c2)CC1 [Compound 13, N-[3-(4-methylpiperazin-1-yl)-5-(trifluoromethyl)phenyl]-1-(4-pyridyl)-1,2,4-triazol-3-amine]",100 to 1000,≤ 1,–
"CCc1cc(Nc2ncn(-c3ccc(F)cc3)n2)cc(N2CCN(C3COC3)CC2)c1 [Compound 14, N-[3-ethyl-5-[4-(oxetan-3-yl)piperazin-1-yl]phenyl]-1-(4-fluorophenyl)-1,2,4-triazol-3-amine]",1000 to 10000,≤ 1,–
